Molecules are shown by their SMILES. Bounds are passed on as bounds.

From US20240051985A1, “METTL3 MODULATORS” (ACCENT THERAPEUTICS, INC., priority 2020, published 2024) come the findings set out here.

The target of the first assay is METTL3/METTL14 (Homo sapiens, UniProt Q86U44). Kind of assay: METTL3-14 standard enzyme assay (3H-SAM flashplate). To be noted: Table 3; METTL3 biochemical assay. The procedure: METTL3-14 Standard Enzyme Assay
Sequence of METTL3/METTL14 (Q86U44 whole entry, species assumed): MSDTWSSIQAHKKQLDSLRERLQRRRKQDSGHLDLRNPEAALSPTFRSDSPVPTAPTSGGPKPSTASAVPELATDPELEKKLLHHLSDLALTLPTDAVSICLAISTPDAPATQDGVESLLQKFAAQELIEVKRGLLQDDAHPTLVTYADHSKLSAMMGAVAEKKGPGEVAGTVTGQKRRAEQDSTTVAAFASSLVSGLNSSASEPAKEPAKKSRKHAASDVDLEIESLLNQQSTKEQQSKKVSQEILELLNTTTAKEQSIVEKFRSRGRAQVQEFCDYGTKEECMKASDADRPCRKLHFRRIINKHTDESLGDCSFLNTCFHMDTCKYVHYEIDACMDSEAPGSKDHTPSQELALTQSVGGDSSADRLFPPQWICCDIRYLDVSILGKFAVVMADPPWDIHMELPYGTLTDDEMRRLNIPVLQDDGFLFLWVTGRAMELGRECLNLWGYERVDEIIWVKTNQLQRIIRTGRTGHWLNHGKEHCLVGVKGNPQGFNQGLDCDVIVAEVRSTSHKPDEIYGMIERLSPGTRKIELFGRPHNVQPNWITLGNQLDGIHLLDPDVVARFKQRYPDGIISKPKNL
Sequence of METTL3/METTL14 (Q9HCE5 whole entry partner, species assumed): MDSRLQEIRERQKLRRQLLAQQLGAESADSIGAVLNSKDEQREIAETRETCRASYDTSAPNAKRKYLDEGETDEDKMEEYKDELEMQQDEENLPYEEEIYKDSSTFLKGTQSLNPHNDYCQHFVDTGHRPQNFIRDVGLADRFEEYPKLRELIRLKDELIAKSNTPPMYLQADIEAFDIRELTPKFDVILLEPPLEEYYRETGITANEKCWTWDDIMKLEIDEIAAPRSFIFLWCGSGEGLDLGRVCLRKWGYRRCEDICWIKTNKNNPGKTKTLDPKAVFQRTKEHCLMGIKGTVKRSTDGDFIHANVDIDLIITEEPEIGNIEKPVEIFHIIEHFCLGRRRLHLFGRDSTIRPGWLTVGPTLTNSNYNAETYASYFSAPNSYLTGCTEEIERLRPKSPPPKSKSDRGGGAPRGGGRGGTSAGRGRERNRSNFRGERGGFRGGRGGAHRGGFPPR
Assays were performed in a 25 μl-volume in 384-well V-bottom polypropylene microplates (Greiner Bio-One, cat. No. 781280) at ambient temperature. Optimized 1× assay buffer was 20 mM HEPES pH 7.5, 50 mM KCl, 250 μM MgCl2, 1 mM DTT, 0.01% Tween, 0.01% BSG, 0.004 U/μl RNAseOUT (cat. No. 10777019, ThermoFisher Scientific, Waltham, MA). For compound screening METTL3/METTL14 (final concentration, f.c.=2.5 nM) was added using a Multidrop Combi (ThermoFisher Scientific, Waltham, MA) and preincubated for 5 min. Reactions were started by adding 3′ biotinylated RNA (UCUGGACUAAA-biotin) (f.c.=100 nM) and 3H-SAM (f.c.=100 nM) substrates. Reactions proceeded for 30 minutes and were quenched with excess non-radioactive SAM (f.c.=15 μM). The reactions were then transferred to streptavidin-coated flashplates and incubated for 2 hours at 25° C. Following two washing cycles with 0.1% Tween-20, the plates were sealed and read on a TopCount (PerkinElmer, Waltham, MA) plate-based scintillation counter. For determination of kinetic parameters, reaction times were optimized so that measurements were taken during the initial velocity phase of the reaction.
Compound `Nc1ncnc2c1c(-n1cccn1)cn2[C@@H]1C[C@H](C(=O)Nc2ccc3ccc(N4CCC4)nc3c2)[C@@H](O)C1` [Compound I-14] gave a half-inhibitory concentration (IC50) of 10 to 100 nM.
Consider `Nc1ncnc2c1c(-n1cccn1)cn2[C@H]1C[C@H](O)[C@@H](C(=O)Nc2ccc3ccc(NC4CCC4)nc3c2)O1` [Compound I-16], for which the 50% inhibitory concentration (IC50) is < 10 nM.
For the compound `Nc1ncnc2c1c(-n1cccn1)cn2[C@H]1C[C@H](O)[C@@H](C(=O)Nc2cc(NC3CCC3)ccn2)O1` [Compound I-17, (2S,3S,5R)-5-[4-amino-5-(1H-pyrazol-1-yl)-7H-pyrrolo[2,3-d]pyrimidin-7-yl]-N-[4-(cyclobutylamino)pyridin-2-yl]-3-hydroxyoxolane-2-carboxamide], the IC50 is ≥ 1000 nM.

Still in this assay, the particulars now being: Table 4; METTL3 biochemical assay.
As for `Cn1ccc(-c2cn([C@@H]3O[C@H](C(=O)Nc4ccc(Br)c(Cl)c4)[C@@H](O)[C@H]3O)c3ncnc(N)c23)n1` [Compound I-63], the IC50 was ≥ 1000 nM.
For the compound `Cn1ccc(-c2cn([C@@H]3O[C@H](C(=O)NCCN4CCNC4=O)[C@@H](O)[C@H]3O)c3ncnc(N)c23)n1` [Compound I-64], the concentration for half-maximal inhibition (IC50) was ≥ 1000 nM.
For the compound `Cn1ccc(-c2cn([C@@H]3O[C@H](C(=O)NCCN4CCOCC4)[C@@H](O)[C@H]3O)c3ncnc(N)c23)n1` [Compound I-65], the concentration for half-maximal inhibition (IC50) was ≥ 1000 nM.
`Cn1ccc(-c2cn([C@@H]3O[C@H](C(=O)Nc4ccc5ccccc5n4)[C@@H](O)[C@H]3O)c3ncnc(N)c23)n1` [Compound I-66]: the IC50 was ≥ 1000 nM.
On to `Cn1ccc(-c2cn([C@@H]3O[C@H](C(=O)Nc4cc(Cl)cc(Cl)c4)[C@@H](O)[C@H]3O)c3ncnc(N)c23)n1` [Compound I-67], for which the half-inhibitory concentration (IC50) was ≥ 1000 nM.
For `Cc1ccc2nc(NC(=O)[C@H]3O[C@@H](n4cc(-c5ccn(C)n5)c5c(N)ncnc54)[C@H](O)[C@@H]3O)sc2c1` [Compound I-68], the IC50 is ≥ 1000 nM.
With `Cn1ccc(-c2cn([C@@H]3O[C@H](C(=O)Nc4cccc5cnccc45)[C@@H](O)[C@H]3O)c3ncnc(N)c23)n1` [Compound I-69], the half-inhibitory concentration (IC50) is ≥ 1000 nM.
Regarding `CC(C)c1nnc(NC(=O)[C@H]2O[C@@H](n3cc(-c4ccn(C)n4)c4c(N)ncnc43)[C@H](O)[C@@H]2O)s1` [Compound I-70], the IC50 is ≥ 1000 nM.
As to `Cc1ccc(NC(=O)[C@H]2O[C@@H](n3cc(-c4ccn(C)n4)c4c(N)ncnc43)[C@H](O)[C@@H]2O)cc1Cl` [Compound I-71], the IC50 is ≥ 1000 nM.
`Cc1ccc(Cl)c(NC(=O)[C@H]2O[C@@H](n3cc(-c4ccn(C)n4)c4c(N)ncnc43)[C@H](O)[C@@H]2O)c1` [Compound I-72]: the IC50 is ≥ 1000 nM.
As for `CC(C)OCCNC(=O)[C@H]1O[C@@H](n2cc(-c3ccn(C)n3)c3c(N)ncnc32)[C@H](O)[C@@H]1O` [Compound I-73], the half-maximal inhibitory concentration (IC50) was ≥ 1000 nM.
Regarding `Cn1ccc(-c2cn([C@@H]3O[C@H](C(=O)Nc4cccc(N5CCOCC5)c4)[C@@H](O)[C@H]3O)c3ncnc(N)c23)n1` [Compound I-74], the IC50 was ≥ 1000 nM.
With `Cc1noc(NC(=O)[C@H]2O[C@@H](n3cc(-c4ccn(C)n4)c4c(N)ncnc43)[C@H](O)[C@@H]2O)c1C` [Compound I-75], the IC50 is ≥ 1000 nM.
`Cn1ccc(-c2cn([C@@H]3O[C@H](C(=O)Nc4cccc(C(F)(F)F)c4)[C@@H](O)[C@H]3O)c3ncnc(N)c23)n1` [Compound I-76]: the IC50 was ≥ 1000 nM.
`Cc1cc(CNC(=O)[C@H]2O[C@@H](n3cc(-c4ccn(C)n4)c4c(N)ncnc43)[C@H](O)[C@@H]2O)ccc1F` [Compound I-77]: the IC50 was ≥ 1000 nM.
Turning to `Cn1ccc(-c2cn([C@@H]3O[C@H](C(=O)Nc4nccc5ccccc45)[C@@H](O)[C@H]3O)c3ncnc(N)c23)n1` [Compound I-78], the IC50 is ≥ 1000 nM.
As for `Cn1ccc(-c2cn([C@@H]3O[C@H](C(=O)Nc4ccc(-c5ccccc5)cn4)[C@@H](O)[C@H]3O)c3ncnc(N)c23)n1` [Compound I-79], the concentration for half-maximal inhibition (IC50) is ≥ 1000 nM.
On the same count and under the same terms, the result for `COCC(C)NC(=O)[C@H]1O[C@@H](n2cc(-c3ccn(C)n3)c3c(N)ncnc32)[C@H](O)[C@@H]1O` (stereo partly drawn) [Compound I-80] reads ≥ 1000 nM.

What is called IC50 is the concentration that inhibits the measured activity by half. Low values mean higher potency, high ones lower potency.
